In US20070218004A1, “Method of Identifying Therapeutic Compounds Which Can Be Used for the Treatment and/or Prevention of Infections and Diseases Caused by Human Herpesviruses” (priority 2005, published 2007):
Read-outs that look alike come from different tables or passages of the source.

Assays:
[1] = system: herpes simplex virus type 1 (HSV-1) of the KOS strain; assay type: in vivo, mice of the C57B1/6 lineage
Experimental: All the animals included in the experimental process were 14-week old female mice of the C57B1/6 lineage. Between two and three adult mice were used per analysis group and between 13 and 25 neonates, depending on the availability of animals. […] All the animals went through a quarantine period and were treated with strict precautions against contamination during inoculation and dissection. The animals were intraperitoneally infected with a dose 10^6 pfu of herpes simplex virus type 1 (HSV-1) of the KOS strain (provided by el Dr. L. Carrasco, Centro de Biología Molecular Severo Ochoa, Universidad Autónoma of Madrid). […] The first group of mice was not given any treatment. […] Therefore the antiviral concentration administered per dose and mouse was 0.25 mg (10 mg/kg per mouse, far from the toxicity limit of 80 mg/kg cited above), with a total daily dose of 0.75 mg/day.
The dissected organs in the adult animals were the following: blood, ovaries, adrenal gland, spinal cord, brain, cerebellum and trigeminal ganglia. The entire brain was separated into three rough regions: midbrain, ventricles and cerebral cortex. In the neonates, the dissected organs were blood, spinal cord and encephalon. DNA was extracted using conventional methods (NucleoSpin®, Cat. K3053-2, ClonTech, USA). The viral load of the different organs was analyzed by means of quantitative PCR. […] Primers specific for the sequence of the viral polymerase (pol) gene were used to detect the virus (SEQ. ID. NO: 3 and SEQ. ID. NO: 4) (120 bp amplicon). The PCR conditions were one cycle of 95° C. for 10 minutes, followed by 45 cycles at 95° C. for 30 seconds, 55° C. (for β-actin) or 60° C. (for viral polymerase) for 30 seconds, and a last cycle of 72° C. for 40 seconds. The virus concentration range used for optimizing the quantitative PCR standard curve was expressed as plaque forming units (pfu). For calibrating the β-actin gene, nanograms were used as the unit of this endogenous gene. The identity of the amplified products was checked by analysis of the denaturation curves, by gel electrophoresis and restriction analysis.

HSV-1 = experiment: Acyclovir ad libitum in drink, vertical mother-progeny transmission model (Example 3); assay type: in vivo, mice; details: acyclovir in drinking water ad libitum, high dose (final daily dose 1.50 mg), from the day of the vaginal plug
Experimental: Assuming that a mouse drinks about 3 ml a day, 2 working dilutions ([…] so that the final daily dose was 0.75 mg, and […] so that the final daily dose was 1.50 mg) were used.

[2] = rabbits; cited from earlier work
[3] = rats; cited from earlier work
[4] = mice; cited from earlier work

In the case of `Nc1nc2c(ncn2COCCO)c(=O)[nH]1` [acyclovir], the “viral loads both in the mothers and in the progeny (quantitative PCR)” value ([1]; daily dose of 0.75 mg, both administration routes (oral and subcutaneous), FIG. 7) was “significant reduction”, the “viral levels in all the analyzed organs of the descendants” value ([1]; oral acyclovir administered to the mothers, 0.75 mg/day) was “almost complete elimination” and the mortality of neonates ([1]; oral acyclovir to infected mothers, 0.25 mg per dose three times a day (0.75 mg/day), none of the 17 animals) was “no mortality”. The “virus levels in blood and in the trigeminal ganglia of the mothers” value ([1]; oral acyclovir, 0.75 mg/day) was “virtually undetectable”, the “mortality rate of neonates” value ([1]; subcutaneous acyclovir to infected mothers, 0.25 mg per dose three times a day (0.75 mg/day), from five days before crossbreeding until birth, 1 out of 25) was 4.0% and the “levels of the virus in all the analyzed organs of the mother and in the progeny's CNS” value ([1]; subcutaneous acyclovir, 0.75 mg/day) was “considerably lower levels”. The “survival of the animals” value (HSV-1) was “higher”, the teratogenicity / embryotoxicity [2] was “non-teratogenic or embryotoxic” and the teratogenicity / embryotoxicity [3] was “non-teratogenic or embryotoxic”. The teratogenicity / embryotoxicity [4] was “non-teratogenic or embryotoxic”.
